The text below walks through data of patent US20260227408A1, “Compositions and Methods for Modulation of Immune Responses” (Flagship Pioneering Innovations VI, LLC, priority 2022, published 2026).

B1: SEQ ID NO: 38393: target protein of the Sequence Listing, applied as peptide to PBMCs (peptide, listed as Homo sapiens)
chain: VALSLLTSQGRQRRAGPSTAFAALPATVATFSAMTESESLRTSRHADTALARVRRGAKFRGQARTRYCARARSHRFTPPSGA
B2: SEQ ID NO: 37047: target protein of the Sequence Listing, applied as peptide to PBMCs (peptide, listed as Homo sapiens)
chain: MMAQKSKFRVLFMSDPHGTAMPLTSAILESSRASLAAKQEDKCFTDIRNLKWKHFLEHTKQPP
B3: SEQ ID NO: 33741: target protein of the Sequence Listing, applied as peptide to PBMCs (peptide, listed as Homo sapiens)
chain: MSYLPTNPPGSILTCWLGVSLGSHRSARGGSTIYGRLLPRRKDVWFSQAKDVPKYRGLLYLQS
B4: SEQ ID NO: 35480: target protein of the Sequence Listing, applied as peptide to PBMCs (peptide, listed as Homo sapiens)
chain: LRPRSAAFAPRYTRLVMRRSSRSFRLQCTGFPSSSAQSISAHLSNSMPSSLLTISRCPGMFAVRCPL
B5: SEQ ID NO: 36902: target protein of the Sequence Listing, applied as peptide to PBMCs (peptide, listed as Homo sapiens)
chain: MQRLPAAFFRSFAAQGLGESVHINTPTSLSLRGRPFISSSGPGARARVTCAPCLHAARILCCFWRGLHR
B6: SEQ ID NO: 33169: target protein of the Sequence Listing, applied as peptide to PBMCs (peptide, listed as Homo sapiens)
chain: MCHKGWHGPGVPHHVAFTPCKARLRPATQCQAHSSPRRKMVQAGSIPLAAASGRLCLTHAGWWRGAS
B7: SEQ ID NO: 37477: target protein of the Sequence Listing, applied as peptide to PBMCs (peptide, listed as Homo sapiens)
chain: MSCGSRRGPSLASSLAWLQLQSGTRPFCSSSPPYFLSHGRRIPFSHPRKESALRATKEPRTHRTNTSLADLPSPAPAHL

The subject of one assay is Peripheral Blood Mononuclear Cells. The assay can be described thus: PBMC cytokine release by CBA, Activation format (peptide alone). In kind it is cell-based, human. Also on record: key: X = a hit with significant activation or inhibition of relevant cytokine release. To be noted: peptide applied to PBMCs alone; supernatant CBA after 24 hours. As to the method: (§1) CBA (Cytometry) experiment looking at pro-inflammatory cytokines produced by PBMCs treated with secreted peptides.
(§2) Peripheral Blood Mononuclear Cells were seeded+/−the T-cell activator […] and +/−peptides for 24-48 hours. Cytokines were measured from the supernatant after incubation by CBA Cytometer.
(§3) Thawing PBMCs: PBMCs were thawed by pre-warming TexMACS media (Miltenyi Biotech) in 20 ml aliquots-1-50 ml conical per donor. After the media was warmed to 37° C., cells were removed from liquid nitrogen and brought to the tissue culture hood. For each donor, 1 ml of media from the warmed aliquot was added to the frozen vial and mixed up and down. The media plus thawed cells were then added back to the 50 ml conical. This was repeated until all the cells were thawed and added to the 50 ml tube. Continue with other donors if used. Spin cells for 5 min at 400×g. Supernatant was aspirated and cells resuspended at ~10*10^6 cells/ml (see vial for cell number).
(§4) PBMC Plating: Frozen PBMCs from normal, healthy, human volunteers (StemCell Technologies) were thawed and plated at 250,000 cells/well. After PBMCs were thawed and resuspended at […], cells were then counted (Countess III, Thermo Scientific) and adjusted based on counts to […]. Take the number of PBMCs determined by number of wells for the experiment, for example, 10 wells would need 2.5*10^6 cells total or 0.250 ml. The cells needed for the experiment are then transferred to another conical tube. Warmed TexMACS media is added so that the final concentration is 250,000 cells/190 ul media, for example, 10 wells would need 1.9 ml (190 ul×10 wells) of media total minus 0.250 ml of cells (1.9 ml-0.250 ml) or 1.65 ml of media added to the 0.250 ml of cells. Add 190 ul of cells plus media to the 96 well U-bottom plate. Place in incubator until dilutions are made and ready.
(§5) Peptide Dilutions: Ideally, all peptides should be at a starting concentration of at least 10 mM, especially for those in DMSO (ATCC) to reach a final concentration of 1 uM (H2O) or 0.5 uM (DMSO). Dilutions of all test articles should be made at 20× the final concentration, for example, a final concentration of 1 uM peptide would need to be made at 20 uM.
(§6) Reagent Dilution: Dilutions are made in TexMACS media, enough for 10 ul/well in triplicate (30 ul of a 20×). Activator—CD3/CD28 (TransAct; Miltenyi Biotech) or cytokine will be at 21× and added after the 45-minute incubation with peptides. Be sure to include relevant controls—Positive: TransAct+Cells, Negative: Vehicle+Cells. Dilutions should also be made in a ultra-low binding plate (Corning).
(§7) Assay Procedure: Peptide Treatment: Start assay by thawing the cells and plating in a 96 well, U-bottom tissue culture plate (Corning) as described above. Cell plates are placed in a tissue culture incubator (5% CO2, 37° C.). While cells are in the incubator, start making dilutions (optimally 1 hr or less) as described above. Cell plates are removed from the incubator and 10 ul of the 20× dilutions are added to the relevant wells. After the addition of inhibitors, cell plates are placed in the tissue culture incubator for 45 minutes. The plates are removed from the incubator and 10 ul of […] TransAct is added to the relevant wells*. Plates are then returned to the incubator and incubated for 24 hours. After 24 hours, plates are spun for 5 minutes at 400×g. * Activation: This assay can be run in two different formats—Activation and Inhibition. The procedure is the same except no TransAct is needed in the peptide wells for Activation. TransAct is only needed in the control wells. The purpose of this procedure is to determine the possible response from peptides alone.
(§8) Cytometric BeadArray (CBA): After the spin, supernatants (~150 ul) are transferred to a new, ultra-low binding U-bottom plate. Supernatants are then frozen at −20° C. until thawed for CBA (BD) to determine levels of human IL-2, TNFa, IL-1b, IP-10, IL-10, and IFNg. […]
Regarding “SEQ ID NO: 35558: target protein of the Sequence Listing, applied as peptide to PBMCs (MTAFGLGIPTFLVMQPSGSQPRFPALTQNGVALVRTPLTSVYLRVRICRVLGPRSQPS; listed as Homo sapiens)”, the “Activation by Analyte IL-10” value is given as “X” and the “Activation by Analyte IP-10” value was “X”. Take “SEQ ID NO: 37375: target protein of the Sequence Listing, applied as peptide to PBMCs (MARPLSLAAAGAPDLLFTALCSLLIEAQPLRPFDLQVLGDPQPRARTP; listed as Homo sapiens)”: the “Activation by Analyte IL-2” value is listed as “X”. Turning to “SEQ ID NO: 33678: target protein of the Sequence Listing, applied as peptide to PBMCs (METSCSLWVSSELFCRSVKVFFCLLALHLSALPHSSWTQDKNLGLAGMVELK; listed as Homo sapiens)”, the “Activation by Analyte IP-10” value was “X”.

Regarding “SEQ ID NO: 38042: target protein of the Sequence Listing, applied as peptide to PBMCs (MWWKTPCWWTPSTTATSSSAEARSCGRLLKSMAG; listed as Homo sapiens)”, the “Activation by Analyte IP-10” value is “X”. As for “SEQ ID NO: 37192: target protein of the Sequence Listing, applied as peptide to PBMCs (MVSHRKDWRRVNLRFSSCLLLSICLDDKPSADELCFWTDHGRSQLTCPSLGVSQGHARSS; listed as Homo sapiens)”, the “Activation by Analyte IP-10” value is “X”. Regarding B1, the “Activation by Analyte IP-10” value is listed as “X”. As to B2, the “Activation by Analyte IP-10” value is on record as “X”. With B3, the “Activation by Analyte IP-10” value is reported as “X”. Regarding B4, the “Activation by Analyte IP-10” value was “X”. As for B5, the “Activation by Analyte IP-10” value was “X”. For B6, the “Activation by Analyte IP-10” value is listed as “X”. Turning to B7, the “Activation by Analyte IL-1b” value is given as “X”.

Another assay relates to CD3/CD28 (TransAct) activated PBMCs. The experiment in a line: PBMC cytokine release by CBA, Inhibition format (peptide with CD3/CD28 TransAct activator). To be noted: CD3/CD28 (TransAct) activated PBMCs; FIG. 1. Further details: key to Inhibition by Analyte IL-1b / Inhibition by Analyte IL-2 / Inhibition by Analyte TNF / Inhibition by Analyte IP-10 / Inhibition by Analyte IL-10: X = a hit with significant activation or inhibition of relevant cytokine release. In kind it is cell-based, human. As for the experimental part: as §1, §2, §3, §4, §5, §6, §7, §8
Take “SEQ ID NO: 33885: Target Protein validated as an anti-inflammatory immune modulator (VAEPRRGHLKAALASLGGAAPAAATNGSPPLFK; listed as Homo sapiens)”: the “release of TNF-alpha from activated PBMCs” value was “significantly blocks”.

The same assay, now with this note: CD3/CD28 (TransAct) activated PBMCs; FIG. 2.
“SEQ ID NO: 33885: Target Protein validated as an anti-inflammatory immune modulator (VAEPRRGHLKAALASLGGAAPAAATNGSPPLFK; listed as Homo sapiens)”: the “release of IL-1b from activated PBMCs” value is recorded as “does not block”.

The same assay, now with this note: peptide applied with anti-CD3/CD28 T-cell activator; supernatant CBA after 24 hours.
As for “SEQ ID NO: 35373: target protein of the Sequence Listing, applied as peptide to PBMCs (LDFIRAFLLLLVASVPGKIGSQNLTAQRPPVATSFLQMESSEPTVRK; listed as Homo sapiens)”, the “Inhibition by Analyte IL-1b” value is “X”, the “Inhibition by Analyte IL-2” value is on record as “X”, the “Inhibition by Analyte IP-10” value was “X” and the “Inhibition by Analyte TNF” value was “X”.

With “SEQ ID NO: 35558: target protein of the Sequence Listing, applied as peptide to PBMCs (MTAFGLGIPTFLVMQPSGSQPRFPALTQNGVALVRTPLTSVYLRVRICRVLGPRSQPS; listed as Homo sapiens)”, the “Inhibition by Analyte IL-1b” value was “X” and the “Inhibition by Analyte TNF” value is given as “X”.

For the molecule “SEQ ID NO: 37363: target protein of the Sequence Listing, applied as peptide to PBMCs (MGGKSWLFFYSLVFCALLPLPRREDPFKLF; listed as Homo sapiens)”, the “Inhibition by Analyte IL-1b” value is “X”.

“SEQ ID NO: 33885: Target Protein validated as an anti-inflammatory immune modulator (VAEPRRGHLKAALASLGGAAPAAATNGSPPLFK; listed as Homo sapiens)”: the “Inhibition by Analyte IL-1b” value was “X”, the “Inhibition by Analyte IL-2” value is given as “X”, the “Inhibition by Analyte IP-10” value was “X” and the “Inhibition by Analyte TNF” value is “X”.

As for “SEQ ID NO: 37043: target protein of the Sequence Listing, applied as peptide to PBMCs (MSEVATLLFSQTALASLESVHPAGHKLWMRNLRQVTSP; listed as Homo sapiens)”, the “Inhibition by Analyte IL-2” value is reported as “X” and the “Inhibition by Analyte TNF” value was “X”. For the molecule “SEQ ID NO: 37394: target protein of the Sequence Listing, applied as peptide to PBMCs (MESRTLLLLFSGAVALIQTWADYNYNQGRNDLIFTLQLWKRQ; listed as Homo sapiens)”, the “Inhibition by Analyte IL-1b” value is on record as “X”. Turning to “SEQ ID NO: 33934: target protein of the Sequence Listing, applied as peptide to PBMCs (MSFDHPEKNGPWPADPINLPSHG; listed as Homo sapiens)”, the “Inhibition by Analyte IL-2” value is reported as “X” and the “Inhibition by Analyte TNF” value is “X”. On to “SEQ ID NO: 34837: target protein of the Sequence Listing, applied as peptide to PBMCs (MRSPLSASALLLWSSSVARAFSSPSLLMAVPSPTCSRY; listed as Homo sapiens)”, for which the “Inhibition by Analyte IL-1b” value is listed as “X”, the “Inhibition by Analyte IL-10” value was “X”, the “Inhibition by Analyte IP-10” value is “X” and the “Inhibition by Analyte TNF” value was “X”.
